Test results: US5190922A (priority 1991, dated 1993)
Non-standard residues stand in square brackets, D forms with d. Residues, ends and D or L forms follow the SMILES beside them. ξ: configuration not given here. *: point of attachment. X10 = N=C(N)NCCCCN(C[C@H](CC1CCCCC1)N*)C(=O)Cc1ccccc1; X6 = N#CC(Cc1ccccc1)(Cc1ccccc1)C(=O)*; NHCH2(2-pyridyl) = c1ccc(CN*)nc1; NMeF = CN[C@@H](Cc1ccccc1)C(=O)O; PhLac = O=C(O)[C@@H](O)Cc1ccccc1; X11 = O=[N+]([O-])c1cccc(CN*)c1; Cha = N[C@@H](CC1CCCCC1)C(=O)O; dCha = N[C@H](CC1CCCCC1)C(=O)O; Phe(ol) = N[C@H](CO)Cc1ccccc1; X2 = N#CC(Cc1ccccc1)C(=O)*; ξCha = NC(CC1CCCCC1)C(=O)O; 4Amb = NCc1ccc(C(=O)O)cc1; X8 = c1ccc(C2(CN*)CC2)cc1; X4 = NCCCN(CCc1ccccc1)*; NH(CH2)5NH2 = NCCCCCN*; NHBn = c1ccc(CN*)cc1; Bz = O=C(c1ccccc1)*; OBn = c1ccc(CO*)cc1; X5 = c1ccc(NN*)cc1; X3 = N=C(N)NCCCN*; X1 = N#CCCN*

Target: T1, C5a Receptor (Homo sapiens, UniProt P21730)
T1 construct: 2.5-25 μg/mL of purified PMNL membrane fragments; from tissue; host or cells: polymorphonuclear leukocyte (PMNL) membrane fragments
T1 sequence (P21730 1-350): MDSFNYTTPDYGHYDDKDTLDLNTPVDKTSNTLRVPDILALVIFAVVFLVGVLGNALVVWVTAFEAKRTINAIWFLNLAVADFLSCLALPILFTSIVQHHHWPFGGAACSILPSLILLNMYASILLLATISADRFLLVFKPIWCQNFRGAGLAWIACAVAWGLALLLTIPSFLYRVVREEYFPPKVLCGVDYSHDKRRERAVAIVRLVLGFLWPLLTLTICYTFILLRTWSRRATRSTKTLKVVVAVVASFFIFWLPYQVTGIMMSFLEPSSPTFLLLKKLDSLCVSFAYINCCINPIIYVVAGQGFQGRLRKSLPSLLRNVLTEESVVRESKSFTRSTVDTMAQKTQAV
Test: Anaphylatoxin receptor binding Ki determination (inhibition of 125I-C5a binding to PMNL membrane fragments)
Conditions: not given
Experimental: Specific inhibition of C5 a binding activity of representative compounds of the present invention was measured using 0.03-1 nM ^125 I-C5 a with 2.5-25 μg/mL of purified PMNL membrane fragments (Borregaard, N.; Heiple, J. M.; Simons, E. R.; and Clark, R. A. J. Cell. Biol. 1983, 97, 52-61.). Free and membrane-bound ligand were separated by filtration.

Point of comparison: CN[C@@H](Cc1ccccc1)C(=O)N[C@@H](CCCCN)C(=O)N1CCC[C@H]1C(=O)N[C@H](CC1CCCCC1)C(=O)N[C@@H](Cc1ccccc1)C(=O)NCC1(c2ccccc2)CC1 [Example 100, (N-Methyl)Phenylalanyl-Lysyl-Prolyl-{(2R)-2-Amino-3-cyclohexylpropanoyl}-Phenylalanyl-N-{(1-Phenyl)cyclopropylmethyl}amide] (H-[NMeF]KP[dCha]F-X8), Ki 91 nM. Against it:
- N=C(N)NCCC[C@@H](NC(=O)[C@H](CC1CCCCC1)NC(=O)[C@@H](CC1CCCCC1)NC(=O)[C@@H]1CCCN1C(=O)[C@H](CCCCN)NC(=O)c1ccccc1)C(=O)O [Example 82, N-Benzoyl-Lysyl-Prolyl-{(2R)-2-Amino-3-cyclohexylpropanoyl}-{(2S)-2-Amino-3-cyclohexylpropanoyl}-DArginyl-OH] (Bz-KP[dCha][Cha][dR]-OH) — 260-fold higher, 24000 nM
- CN[C@@H](Cc1ccccc1)C(=O)N[C@@H](CCCCN)C(=O)N1CCC[C@H]1C(=O)N[C@H](CC1CCCCC1)C(=O)N[C@@H](Cc1ccccc1)C(=O)NCc1ccc(C(=O)O)cc1 [Example 177, (N-Methyl)Phenylalanyl-Lysyl-Prolyl-{(2R)-2-Amino-3-cyclohexylpropanoyl}-Phenylalanyl-N-(4-Carboxybenzyl)amide] (H-[NMeF]KP[dCha]F[4Amb]-OH) — 430-fold higher, 38700 nM
- CN[C@@H](Cc1ccccc1)C(=O)N[C@@H](CCCCN)C(=O)N1CCC[C@H]1C(=O)N[C@H](CC1CCCCC1)C(=O)N[C@@H](Cc1ccccc1)C(=O)NCCCNC(=N)N [Example 201, (N-Methyl)Phenylalanyl-Lysyl-Prolyl-{(2R)-2-Amino-3-cyclohexylpropanoyl}-Phenylalanyl-N-(3-Guanidinopropyl)amide] (H-[NMeF]KP[dCha]F-X3) — 7.6-fold higher, 690 nM
- CN[C@@H](Cc1ccccc1)C(=O)N[C@@H](CCCCN)C(=O)N1CCC[C@H]1C(=O)N[C@H](CC1CCCCC1)C(=O)N[C@@H](CC1CCCCC1)CN(CCCCNC(=N)N)C(=O)Cc1ccccc1 [Example 78, N-(4-Guanidinobutyl)-N-[(N-Methyl)Phenylalanyl-Lysyl-Prolyl-{(2R)-2-Amino-3-cyclohexylpropanoyl}-{(2S)-2-Amino-3-cyclohexylpropyl}]-N-Phenylacetamide] (H-[NMeF]KP[dCha]-X10) — 7.5-fold higher, 680 nM
- N#CC(Cc1ccccc1)C(=O)N[C@@H](CCCCN)C(=O)N1CCC[C@H]1C(=O)N[C@H](CC1CCCCC1)C(=O)N[C@@H](Cc1ccccc1)C(=O)N[C@H](CCCNC(=N)N)C(=O)O (stereo partly drawn) [Example 99, {(2RS)-2-Cyano-3-phenylpropionyl}-Lysyl-Prolyl-{(2R)-2-Amino-3-cyclohexylpropanoyl}-Phenylalanyl-DArginyl-OH] (X2-KP[dCha]F[dR]-OH) — within 1.5-fold, 120 nM
- CN[C@@H](Cc1ccccc1)C(=O)N[C@@H](CCCCN)C(=O)N1CCC[C@H]1C(=O)N[C@H](CC1CCCCC1)C(=O)N[C@@H](CC1CCCCC1)C(=O)NNc1ccccc1 [Example 163, (N-Methyl)Phenylalanyl-Lysyl-Prolyl-{(2R)-2-Amino-3-cyclohexylpropanoyl}-{(2S)-2-Amino-3-cyclohexylpropanoyl}-N-(N'-Phenyl)hydrazide] (H-[NMeF]KP[dCha][Cha]-X5) — 1.5-fold higher, 140 nM

Same assay, conditions: 0.03-1 nM 125I-C5a, 2.5-25 μg/mL purified PMNL membrane fragments, filtration; read-out: Ki (In vitro C5a Receptor Binding Potency)

Point of comparison: CN[C@@H](Cc1ccccc1)C(=O)N[C@@H](CCCCN)C(=O)N1CCC[C@H]1C(=O)N[C@H](CC1CCCCC1)C(=O)N1CCN(Cc2ccccc2)CC1 [Example 117], Ki 110000 nM. Against it:
- N=C(N)NCCC[C@@H](NC(=O)[C@H](CC1CCCCC1)NC(=O)[C@@H](CC1CCCCC1)NC(=O)[C@@H]1CCCN1C(=O)[C@H](CCCCN)NC(=O)C(Cc1ccccc1)C(=O)O)C(=O)O (mixture of isomers) [Example 149, {(R/S)-(2-Carboxyl)-3-phenylpropionyl}-Lysyl-Prolyl-{(2R)-2-Amino-3-cyclohexylpropanoyl}-{(2S)-2-Amino-3-cyclohexylpropanoyl}-DArginyl-OH] — 5000-fold lower, 22 nM
- N#CC(Cc1ccccc1)(Cc1ccccc1)C(=O)N[C@@H](CCCCN)C(=O)N1CCC[C@H]1C(=O)N[C@H](CC1CCCCC1)C(=O)N[C@@H](Cc1ccccc1)C(=O)N[C@H](CCCNC(=N)N)C(=O)O [Example 88, {2-Benzyl-2-cyano-3-phenylpropionyl}-Lysyl-Prolyl-{(2R)-2-Amino-3-cyclohexylpropanoyl}-Phenylalanyl-DArginyl-OH] (X6-KP[dCha]F[dR]-OH) — 160-fold lower, 670 nM
- CN[C@@H](Cc1ccccc1)C(=O)N[C@@H](CCCCN)C(=O)N1CCC[C@H]1C(=O)N[C@H](CC1CCCCC1)C(=O)N[C@@H](CC1CCCCC1)C(=O)NCc1ccccc1 [Example 96, (N-Methyl)Phenylalanyl-Lysyl-Prolyl-{(2R)-2-Amino-3-cyclohexylpropanoyl}-{(2S)-2-Amino-3-cyclohexylpropanoyl}-N-Benzylamide] (H-[NMeF]KP[dCha][Cha]-NHBn) — 1200-fold lower, 90 nM
- CN[C@@H](Cc1ccccc1)C(=O)N[C@@H](CCCCN)C(=O)N1CCC[C@H]1C(=O)N[C@H](CC1CCCCC1)C(=O)N[C@@H](CC1CCCCC1)C(=O)NCCCNC(=N)N [Example 55, (N-Methyl)Phenylalanyl-Lysyl-Prolyl-{(2R)-2-Amino-3-cyclohexylpropanoyl}-{(2S)-2-Amino-3-cyclohexylpropanoyl}-N-(3-Guanidinopropyl)amide] (H-[NMeF]KP[dCha][Cha]-X3) — 16000-fold lower, 7 nM
- CN[C@@H](Cc1ccccc1)C(=O)N[C@@H](CCCCN)C(=O)N1CCC[C@H]1C(=O)N[C@H](CC1CCCCC1)C(=O)N[C@@H](CC1CCCCC1)C(=O)NCCC#N [Example 223, (N-Methyl)Phenylalanyl-Lysyl-Prolyl-{(2R)-2-Amino-3-cyclohexylpropanoyl}-{(2S)-2-Amino-3-cyclohexylpropanoyl}-N-(2-Cyanoethyl)amide] (H-[NMeF]KP[dCha][Cha]-X1) — 92-fold lower, 1200 nM
- N=C(N)NCCC[C@@H](NC[C@H](Cc1ccccc1)NC(=O)[C@@H](CC1CCCCC1)NC(=O)[C@@H]1CCCN1C(=O)[C@H](CCCCN)NC(=O)CCCCc1ccccc1)C(=O)O [Example 202, {5-Phenylvaleryl}-Lysyl-Prolyl -{(2R)-2-Amino-3-cyclohexylpropanoyl}-Phenylalanyl-.PSI.(CH2 NH)-DArginyl-OH] — 2.1-fold lower, 52000 nM
- CN[C@@H](Cc1ccccc1)C(=O)N[C@@H](CCCCN)C(=O)N1CCC[C@H]1C(=O)N[C@H](CC1CCCCC1)C(=O)N[C@H](CO)Cc1ccccc1 [Example 119, (N-Methyl)Phenylalanyl-Lysyl-Prolyl-{(2R)-2-Amino-3-cyclohexylpropanoyl}-{(S)-(-)-2-Amino-3-phenyl-1-propanol}] (H-[NMeF]KP[dCha][Phe(ol)]) — 140-fold lower, 780 nM
- CN[C@@H](Cc1ccccc1)C(=O)N[C@@H](CCCCN)C(=O)N1CCC[C@H]1C(=O)N[C@H](CC1CCCCC1)C(=O)N(CCCN)CCc1ccccc1 [Example 225, (N-Methyl)Phenylalanyl-Lysyl-Prolyl-{(2R)-2-Amino-3-cyclohexylpropanoyl}-N-3-Aminopropyl-N-2-Phenethylamide] (H-[NMeF]KP[dCha]-X4) — 2.4-fold lower, 46000 nM
- N=C(N)NCCC[C@@H](NC(=O)[C@H](Cc1ccccc1)NC(=O)[C@@H](CC1CCCCC1)NC(=O)[C@@H]1CCCN1C(=O)[C@H](CCCCN)NC(=O)[C@@H](O)Cc1ccccc1)C(=O)O [Example 84, {(3S)-Phenyllactyl)-Lysyl-Prolyl-{(2R)-2-Amino-3-cyclohexylpropanoyl}-Phenylalanyl-DArginyl-OH] (H-[PhLac]KP[dCha]F[dR]-OH) — 1800-fold lower, 62 nM
- CN[C@@H](Cc1ccccc1)C(=O)N[C@@H](CCCCN)C(=O)N1CCC[C@H]1C(=O)N[C@H](CCCNC(=N)N)C(=O)N[C@@H](Cc1ccccc1)C(=O)NCc1ccccn1 [Example 199, (N-Methyl)Phenylalanyl-Lysyl-Prolyl-DArginyl-Phenylalanyl-N-(2-Picolyl)amide] (H-[NMeF]KP[dR]F-{NHCH2(2-pyridyl)}) — 13-fold lower, 8400 nM
- CN[C@@H](Cc1ccccc1)C(=O)N[C@@H](CCCCN)C(=O)N1CCC[C@H]1C(=O)N[C@H](CC1CCCCC1)C(=O)N[C@@H](CC1CCCCC1)C(=O)NCCCCCN [Example 30, (N-Methyl)Phenylalanyl-Lysyl-Prolyl-{(2R)-2-Amino-3-cyclohexylpropanoyl}-{(2S)-2-Amino-3-cyclohexylpropanoyl}-N-(5-Aminopentyl)amide] (H-[NMeF]KP[dCha][Cha]-{NH(CH2)5NH2}) — 50-fold lower, 2200 nM
- CN[C@@H](Cc1ccccc1)C(=O)N[C@@H](CCCCN)C(=O)N1CCC[C@H]1C(=O)N[C@H](CC1CCCCC1)C(=O)N[C@@H](CC1CCCCC1)C(=O)NCc1cccc([N+](=O)[O-])c1 [Example 114, (N-Methyl)Phenylalanyl-Lysyl-Prolyl-{(2R)-2-Amino-3-cyclohexylpropanoyl}-{(2S)-2-Amino-3-cyclohexylpropanoyl}-N-(3-Nitrobenzyl)amide] (H-[NMeF]KP[dCha][Cha]-X11) — 850-fold lower, 130 nM
- CN[C@@H](Cc1ccccc1)C(=O)N[C@@H](CCCCN)C(=O)N1CCC[C@H]1C(=O)N[C@H](CC1CCCCC1)C(=O)NC(CC1CCCCC1)C(=O)OCc1ccccc1 (stereo partly drawn) [Example 159, (N-Methyl)Phenylalanyl-Lysyl-Prolyl-{(2R)-2-Amino-3-cyclohexylpropanoyl}-{(2R/S)-2-Amino-3-cyclohexylpropanoyl}O-Benzyl] (H-[NMeF]KP[dCha][ξCha]-OBn) — 110-fold lower, 980 nM
